Data: US20080200454A1, “CARBON-LINKED TETRAHYDRO-PYRAZOLO-PYRIDINE MODULATORS OF CATHEPSIN S” (priority 2007, published 2008)
Like-named read-outs stand apart in the source and are kept apart here.

Biological target: Recombinant human cathepsin S (CatS) (Homo sapiens, UniProt P25774)
Assay: Recombinant human cathepsin S (CatS) inhibition assay, fluorogenic substrate Z-Valine-Valine-Arginine-AMC;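 further: Baculovirus-expressed CatS in pH 5.0 sodium acetate buffer with DTT and NaCl, fluorescence read each minute over 20 min, inhibition derived from rate slope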

Sequence of Recombinant human cathepsin S (CatS) (P25774 115-331): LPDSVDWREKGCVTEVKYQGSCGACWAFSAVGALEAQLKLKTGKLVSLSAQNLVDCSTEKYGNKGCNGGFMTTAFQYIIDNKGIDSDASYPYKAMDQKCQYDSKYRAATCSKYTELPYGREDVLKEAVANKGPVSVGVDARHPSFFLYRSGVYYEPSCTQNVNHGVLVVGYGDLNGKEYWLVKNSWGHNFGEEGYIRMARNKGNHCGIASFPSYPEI

Row | IC50 | SMILES | IC50 (CatS IC50)
1 |  | CS(=O)(=O)N1CCc2c(c(-c3ccc(Cl)c(C#Cc4ccc(CNCCc5cccs5)cc4)c3)nn2CCCN2CCOCC2)C1 [Example 423, N-{[4-({2-Chloro-5-[5-(methylsulfonyl)-1-(3-morpholin-4-ylpropyl)-4,5,6,7-tetrahydro-1H-pyrazolo[4,3-c]pyridin-3-yl]phenyl}ethynyl)phenyl]methyl}-2-(2-thienyl)ethanamine] | 270 nM
2 |  | Cc1ccsc1CNCc1ccc(C#Cc2cc(-c3nn(CCCN4CCOCC4)c4c3CN(S(C)(=O)=O)CC4)ccc2Cl)cc1 [Example 424, 1-[4-({2-Chloro-5-[5-(methylsulfonyl)-1-(3-morpholin-4-ylpropyl)-4,5,6,7-tetrahydro-1H-pyrazolo[4,3-c]pyridin-3-yl]phenyl}ethynyl)phenyl]-N-[(3-methyl-2-thienyl)methyl]methanamine] | 200 nM
3 |  | CS(=O)(=O)N1CCc2c(c(-c3ccc(Cl)c(C#Cc4ccc(CNCc5ccco5)cc4)c3)nn2CCCN2CCOCC2)C1 [Example 425, 1-[4-({2-Chloro-5-[5-(methylsulfonyl)-1-(3-morpholin-4-ylpropyl)-4,5,6,7-tetrahydro-1H-pyrazolo[4,3-c]pyridin-3-yl]phenyl}ethynyl)phenyl]-N-(furan-2-ylmethyl)methanamine] | 70 nM
4 |  | Cc1cc(CNCc2ccc(C#Cc3cc(-c4nn(CCCN5CCOCC5)c5c4CN(S(C)(=O)=O)CC5)ccc3Cl)cc2)c(C(F)(F)F)o1 [Example 426, 1-[4-({2-Chloro-5-[5-(methylsulfonyl)-1-(3-morpholin-4-ylpropyl)-4,5,6,7-tetrahydro-1H-pyrazolo[4,3-c]pyridin-3-yl]phenyl}ethynyl)phenyl]-N-{[5-methyl-2-(trifluoromethyl)furan-3-yl]methyl}methanamine] | 390 nM
5 | 1990 nM | CS(=O)(=O)N1CCc2c(c(-c3ccc(Cl)c(C#Cc4cncc(CNCc5ccccc5)c4)c3)nn2CCCN2CCOCC2)C1 [Example 427, 1-[5-({2-Chloro-5-[5-(methylsulfonyl)-1-(3-morpholin-4-ylpropyl)-4,5,6,7-tetrahydro-1H-pyrazolo[4,3-c]pyridin-3-yl]phenyl}ethynyl)pyridin-3-yl]-N-(phenylmethyl)methanamine] | 
6 |  | CS(=O)(=O)N1CCc2c(c(-c3ccc(Cl)c(C#Cc4cncc(CNCc5ccc(Cl)cc5)c4)c3)nn2CCCN2CCOCC2)C1 [Example 428, 1-[5-({2-Chloro-5-[5-(methylsulfonyl)-1-(3-morpholin-4-ylpropyl)-4,5,6,7-tetrahydro-1H-pyrazolo[4,3-c]pyridin-3-yl]phenyl}ethynyl)pyridin-3-yl]-N-[(4-chlorophenyl)methyl]methanamine] | 3750 nM
7 | 20 nM | NC(=O)C(=O)N1CCc2c(c(-c3ccc(Cl)c(C#Cc4ccc(CNCc5ccc(Cl)cc5)cc4)c3)nn2CCCN2CCN(c3ccccc3)CC2)C1 [Example 429, 2-{3-(4-Chloro-3-{[4-({[(4-chlorophenyl)methyl]amino}methyl)phenyl]ethynyl}phenyl)-1-[3-(4-phenylpiperazin-1-yl)propyl]-1,4,6,7-tetrahydro-5H-pyrazolo[4,3-c]pyridin-5-yl}-2-oxoacetamide] | 
8 | 40 nM | NC(=O)N1CCc2c(c(-c3ccc(Cl)c(C#Cc4ccc(CNCc5ccc(Cl)cc5)cc4)c3)nn2CCCN2CCN(c3ccccc3)CC2)C1 [Example 430, 3-(4-Chloro-3-{[4-({[(4-chlorophenyl)methyl]amino}methyl)phenyl]ethynyl}phenyl)-1-[3-(4-phenylpiperazin-1-yl)propyl]-1,4,6,7-tetrahydro-5H-pyrazolo[4,3-c]pyridine-5-carboxamide] | 
9 | 170 nM | Cc1ccsc1CNCc1ccc(C#Cc2cc(-c3nn(CCCN4CCOC[C@@H]4C)c4c3CN(S(C)(=O)=O)CC4)ccc2Cl)cc1 [Example 431, 1-[4-({2-Chloro-5-[1-{3-[(3S)-3-methylmorpholin-4-yl]propyl}-5-(methylsulfonyl)-4,5,6,7-tetrahydro-1H-pyrazolo[4,3-c]pyridin-3-yl]phenyl}ethynyl)phenyl]-N-[(3-methyl-2-thienyl)methyl]methanamine] | 
10 |  | C[C@H]1COCCN1CCCn1nc(-c2ccc(Cl)c(C#Cc3ccc(CNCc4ccco4)cc3)c2)c2c1CCN(S(C)(=O)=O)C2 [Example 432, 1-[4-({2-Chloro-5-[1-{3-[(3S)-3-methylmorpholin-4-yl]propyl}-5-(methylsulfonyl)-4,5,6,7-tetrahydro-1H-pyrazolo[4,3-c]pyridin-3-yl]phenyl}ethynyl)phenyl]-N-(furan-2-ylmethyl)methanamine] | 230 nM
11 |  | C[C@H]1COCCN1CCCn1nc(-c2ccc(Cl)c(C#Cc3ccc(CNCc4cccs4)cc3)c2)c2c1CCN(S(C)(=O)=O)C2 [Example 433, 1-[4-({2-Chloro-5-[1-{3-[(3S)-3-methylmorpholin-4-yl]propyl}-5-(methylsulfonyl)-4,5,6,7-tetrahydro-1H-pyrazolo[4,3-c]pyridin-3-yl]phenyl}ethynyl)phenyl]-N-(2-thienylmethyl)methanamine] | 240 nM
12 |  | C[C@H]1COCCN1CCCn1nc(-c2ccc(Cl)c(C#Cc3ccc(CNCc4ccsc4)cc3)c2)c2c1CCN(S(C)(=O)=O)C2 [Example 434, 1-[4-({2-Chloro-5-[1-{3-[(3S)-3-methylmorpholin-4-yl]propyl}-5-(methylsulfonyl)-4,5,6,7-tetrahydro-1H-pyrazolo[4,3-c]pyridin-3-yl]phenyl}ethynyl)phenyl]-N-(3-thienylmethyl)methanamine] | 200 nM
13 | 80 nM | NC(=O)C(=O)N1CCc2c(c(-c3ccc(Cl)c(C#Cc4ccc(CNCc5ccc(Cl)cc5)cc4)c3)nn2CCCN2C[C@@H]3C[C@H]2CO3)C1 [Example 435, 2-[3-(4-Chloro-3-{[4-({[(4-chlorophenyl)methyl]amino}methyl)phenyl]ethynyl}phenyl)-1-{3-[(1S,4S)-2-oxa-5-azabicyclo[2.2.1]hept-5-yl]propyl}-1,4,6,7-tetrahydro-5H-pyrazolo[4,3-c]pyridin-5-yl]-2-oxoacetamide] | 
14 | 280 nM | CS(=O)(=O)N1CCc2c(c(-c3ccc(Cl)c(C#Cc4ccc(CNCc5ccc(Cl)cc5)c(F)c4)c3)nn2CCCN2CCOCC2)C1 [Example 436, 1-[4-({2-Chloro-5-[5-(methylsulfonyl)-1-(3-morpholin-4-ylpropyl)-4,5,6,7-tetrahydro-1H-pyrazolo[4,3-c]pyridin-3-yl]phenyl}ethynyl)-2-fluorophenyl]-N-[(4-chlorophenyl)methyl]methanamine] | 
15 | 570 nM | CS(=O)(=O)N1CCc2c(c(-c3ccc(Cl)c(C#Cc4ccc(CNCc5ccc(Cl)cc5)cc4)c3)nn2CCCN2CCOCC2C(=O)O)C1 (stereo not shown) [Example 437, 4-{3-[3-(4-Chloro-3-{[4-({[(4-chlorophenyl)methyl]amino}methyl)phenyl]ethynyl}phenyl)-5-(methylsulfonyl)-4,5,6,7-tetrahydro-1H-pyrazolo[4,3-c]pyridin-1-yl]propyl}morpholine-3-carboxylic acid] | 
16 |  | CS(=O)(=O)N1CCc2c(c(-c3ccc(Cl)c(C#Cc4cccc(CNCc5ccc(Cl)cc5)c4)c3)nn2CCCN2CCOCC2)C1 [Example 438, 1-[3-({2-Chloro-5-[5-(methylsulfonyl)-1-(3-morpholin-4-ylpropyl)-4,5,6,7-tetrahydro-1H-pyrazolo[4,3-c]pyridin-3-yl]phenyl}ethynyl)phenyl]-N-[(4-chlorophenyl)methyl]methanamine] | 720 nM
17 | 320 nM | C[C@H]1COCCN1CCCn1nc(-c2ccc(Cl)c(C#Cc3cccc(CNCc4ccc(Cl)cc4)c3)c2)c2c1CCN(S(C)(=O)=O)C2 [Example 439, 1-[3-({2-Chloro-5-[1-{3-[(3S)-3-methylmorpholin-4-yl]propyl}-5-(methylsulfonyl)-4,5,6,7-tetrahydro-1H-pyrazolo[4,3-c]pyridin-3-yl]phenyl}ethynyl)phenyl]-N-[(4-chlorophenyl)methyl]methanamine] | 
18 |  | CS(=O)(=O)N1CCc2c(c(-c3ccc(Cl)c(C#Cc4cccc(CNCc5ccc(Cl)cc5)c4)c3)nn2CCCN2C[C@@H]3C[C@H]2CO3)C1 [Example 440, 1-[3-({2-Chloro-5-[5-(methylsulfonyl)-1-{3-[(1S,4S)-2-oxa-5-azabicyclo[2.2.1]hept-5-yl]propyl}-4,5,6,7-tetrahydro-1H-pyrazolo[4,3-c]pyridin-3-yl]phenyl}ethynyl)phenyl]-N-[(4-chlorophenyl)methyl]methanamine] | 390 nM
19 |  | CS(=O)(=O)N1CCc2c(c(-c3ccc(Cl)c(C#Cc4c[nH]cn4)c3)nn2CCCN2CCOCC2)C1 [Example 441, 3-[4-Chloro-3-(1H-imidazol-4-ylethynyl)phenyl]-5-(methylsulfonyl)-1-(3-morpholin-4-ylpropyl)-4,5,6,7-tetrahydro-1H-pyrazolo[4,3-c]pyridine] | 3060 nM
20 |  | CS(=O)(=O)N1CCc2c(c(-c3ccc(Cl)c(C#Cc4ccc(CN5CCc6ccccc6C5)cc4)c3)nn2CCCN2CCOCC2)C1 [Example 442, 2-{[4-({2-Chloro-5-[5-(methylsulfonyl)-1-(3-morpholin-4-ylpropyl)-4,5,6,7-tetrahydro-1H-pyrazolo[4,3-c]pyridin-3-yl]phenyl}ethynyl)phenyl]methyl}-1,2,3,4-tetrahydroisoquinoline] | 300 nM
21 |  | CS(=O)(=O)N1CCc2c(c(-c3ccc(Cl)c(C#Cc4ccc(CN5Cc6ccccc6C5)cc4)c3)nn2CCCN2CCOCC2)C1 [Example 443, 3-(4-Chloro-3-{[4-(1,3-dihydro-2H-isoindol-2-ylmethyl)phenyl]ethynyl}phenyl)-5-(methylsulfonyl)-1-(3-morpholin-4-ylpropyl)-4,5,6,7-tetrahydro-1H-pyrazolo[4,3-c]pyridine] | 690 nM
22 | 210 nM | CS(=O)(=O)N1CCc2c(c(-c3ccc(Cl)c(C#Cc4ccc(CN[C@@H]5CCCc6ccccc65)cc4)c3)nn2CCCN2CCOCC2)C1 [Example 444, (1R)—N-{[4-({2-Chloro-5-[5-(methylsulfonyl)-1-(3-morpholin-4-ylpropyl)-4,5,6,7-tetrahydro-1H-pyrazolo[4,3-c]pyridin-3-yl]phenyl}ethynyl)phenyl]methyl}-1,2,3,4-tetrahydronaphthalen-1-amine] | 
